Test results published in patent publication US5171662A, “Method of detecting HIV protease activity” (priority 1991, dated 1992).
Non-standard residues stand in square brackets, D forms with d. Residues, ends and D or L forms follow the SMILES beside them. No end group written: not given here. *: point of attachment. Sta = CC(C)C[C@H](N)[C@@H](O)CC(=O)O; Isovaleryl = CC(C)CC(=O)*

Tests used:
HIV protease [1] = molecular target: HIV protease (HIV-1 M:B_HXB2R, UniProt P04585); experiment: Cleavage of tetradecapeptide substrate by HIV protease, Ang I determined by RIA; type: biochemical
Source text: The tetradecapeptide (TDP) substrate, Asp-Arg-Val-Tyr-Ile-His-Pro-Phe-His-Leu-Leu-Val-Tyr-Ser, was obtained from Peninsula Laboratories, Inc., Belmont, Calif. The Ang I RIA kit was purchased from Baxter Health Care Corporation, Cambridge, Mass. Recombinant HIV-1 protease was purified and refolded from E. coli as published previously (Tomasselli, A. G. et. al. (1990) Biochemistry 29, 264-269). The TDP substrate has an HIV protease cleavage site which when cut at the Leu-Leu bond produces authentic Ang I. The Ang I RIA kit detected the Angiotesin I if produced.
The various steps of the in vitro assay to screen a compound were performed as follows. The series of assays are done for each compound, each assay using a different concentration of compound. The various reagents were added to the system in the order which they are listed.
1. 52 μl assay buffer (0.1M Sodium Acetate, 10% glycerol, 3 mM EDTA, 5% ethylene glycol, 1 mg/ml BSA, pH 5.5)
2. 15 μl HIV-1 protease (final Concentration in assay 0.75 μg/ml). For inhibition studies, 12 μl of inhibitor solution was added prior to adding the enzyme.
3. 135 μl of 2.8 uM substrate (final concentration about 1.9 μM)
4. […]
5. […] Following an overnight equilibration at room temperature, the tubes are drained and the amount of radioactivity (^125 I-labeled Ang I) remaining on the tube is determined in a gamma counter. […]

HIV protease [2] = settings: cited from earlier work
HIV protease [3] = settings: cited from earlier work; remark: listed apart in the source
[4] = test system: synthetic protease (99-residue peptide with the sequence proposed for the HIV protease); settings: cited from earlier work

Row | Compound | cleavage of substrate by HIV protease (HIV protease [1]) | inhibition of cleavage of gag precursor polyproteins by HIV protease (HIV protease [2]) | inhibition of autoprocessing which liberates the protease from the precursor (HIV protease [3]) | inhibition of proteolytic action of the synthetic protease [4]
1 | DRVYIHPFHLLVYS [TDP] | HIV protease cleaves the Ang I substrate |  |  | 
2 | CC(C)CC(=O)N[C@H](C(=O)N[C@H](C(=O)N[C@@H](CC(C)C)[C@@H](O)CC(=O)N[C@@H](C)C(=O)N[C@@H](CC(C)C)[C@@H](O)CC(=O)O)C(C)C)C(C)C [pepstatin A] (Isovaleryl-VV[Sta]A[Sta]-OH) |  | can be inhibited by pepstatin A | can be inhibited | can be inhibited by pepstatin
